US8349553B2, “Jasmonate based assays for identifying compounds that selectively inhibit mitochondrial bound hexokinases” (Ramot at Tel Aviv University Ltd., priority 2007, dated 2013)

Key:
CT26 cells = experiment: Cellular ATP levels (CellTiter-Glo), CT26; format: cell-based, murine; settings: 60 minutes of exposure, indicated concentrations (FIG. 4A)
Method: (§1) The CellTiter-Glo™ Luminescent Cell Viability Assay (Promega, Madison, Wis., U.S.A.) was employed (Fingrut, 2005). Upon completion of a given experiment, plates were equilibrated to room temperature. CellTiter-Glo™ reagent containing luciferin and luciferase was added to each well and the plates were mixed on an orbital shaker for 2 minutes to induce cell lysis. In the presence of ATP, Mg^2+ and molecular oxygen, mono-oxidation of luciferin is catalyzed by luciferase, generating a luminescence signal. Cells were then incubated for 10 minutes at room temperature to stabilize the luminescence signal. Luminescence was recorded using Kodak digital science—Image station 440 CD. Luminescence is directly proportional to ATP concentration. ATP depletion (% of control) was calculated in the following way: {(luminescence of control cells−luminescence of drug-treated cells)/luminescence of control cells}×100. In order to test the correlation between cellular ATP levels and the release of hexokinase from mitochondrial fraction different cancer cells, namely Molt-4 cells, BCL-1 leukemic cells and B16 melanoma tumors were exposed to various methyl jasmonate concentrations. […] CT26 and Molt-4 cells were then seeded in 24 well plates. CT26 cells were allowed to adhere over night. Cells were exposed to methyl jasmonate (MJ; 3 mM) for 1 hour. Trypan blue exclusion test was performed and cells were counted.

B16 melanoma = experiment: Cellular ATP levels (CellTiter-Glo), B16; format: cell-based, murine; settings: 60 minutes of exposure, various concentrations
Method: as §1

[1] = test system: HKI and HKII (mitochondrial fraction of CT-26 tumor); experiment: Western blot of supernatants with anti-HKI and anti-HKII, CT-26 tumor mitochondrial fraction; format: biochemical, murine
Method: (§2) For analysis of hexokinase levels, the experiments were performed similarly to hexokinase detachment assay described above, and unbound hexokinase in the supernatant fraction was extracted as described in Fingrut (2005). Samples were separated by sodium dodecylsulfate-polyacrylamide gel (7%) electrophoresis followed by immunoblotting. The blots were probed with specific anti-HKI or anti-HKII antibodies (1:300, Santa-Cruz Biotechnology, CA, USA). Hexokinase-antibody complexes were stained with HRP-conjugated antibody (1:10,000, Santa-Cruz Biotechnology, CA, USA). Enhanced chemiluminescence (ECL) reagent (Biological Industries, Beit Haemek, Israel) was added, and the blots were exposed to ECL film (Eastman Kodak, Rochester, N.Y., USA). In order to verify physical detachment of mitochondrial hexokinase, similar preparations were separated on SDS-PAGE, electroblotted to nitrocellulose membrane and probed with anti-HKI and anti-HKII antibodies.

[2] = test system: CT26 cells transfected with pcDNA3-HKII or pcDNA3; experiment: ATP depletion in CT26 cells over-expressing hexokinase II; format: cell-based, murine; settings: 60 minutes exposure
Method: The CellTiter-Glo™ Luminescent Cell Viability Assay (Promega, Madison, Wis., U.S.A.) was employed (Fingrut, 2005). Upon completion of a given experiment, plates were equilibrated to room temperature. CellTiter-Glo™ reagent containing luciferin and luciferase was added to each well and the plates were mixed on an orbital shaker for 2 minutes to induce cell lysis. In the presence of ATP, Mg^2+ and molecular oxygen, mono-oxidation of luciferin is catalyzed by luciferase, generating a luminescence signal. Cells were then incubated for 10 minutes at room temperature to stabilize the luminescence signal. Luminescence was recorded using Kodak digital science—Image station 440 CD. Luminescence is directly proportional to ATP concentration. ATP depletion (% of control) was calculated in the following way: {(luminescence of control cells−luminescence of drug-treated cells)/luminescence of control cells}×100.

[3] = test system: HKI and HKII (mitochondrial fraction of B16 tumors); experiment: Western blot of supernatants with anti-HKI and anti-HKII, B16 tumor mitochondrial fraction; format: biochemical, murine; settings: B16 tumor mitochondrial fraction supernatant
Method: as §2, with “Hexokinase detachment from mitochondrial fraction is not limited” for “In order”, “CT-26 colon carcinoma. Mitochondrial fractions isolated from different cancer cells, namely Molt-4 cells, BCL-1 leukemic cells and B16 melanoma tumors were incubated for 30 minutes at 37° C., and the activity” for “verify physical detachment”, “unbound hexokinase was measured and compared to the activity of spontaneously (control) detached hexokinase. […] The supernatant of the experiments” for “mitochondrial hexokinase, similar preparations”, “SDS-PAGE” for “SDS-PAGE, electroblotted to nitrocellulose membrane”

Compound: CC/C=C\CC1C(=O)CCC1CC(=O)OC (centres unmarked) [methyl jasmonate]
- cellular ATP level (CT26 cells): depletes cellular ATP
- cellular ATP level (B16 melanoma): significant and dose-dependent decrease of cellular ATP
- physical release of HKI and HKII into supernatant (immunoblot) [1]: release of both HKI and HKII were demonstrated
- depletion of cellular ATP levels, hexokinase II over-expressing vs. control cells [2]: decreased in cells with higher expression of hexokinase II
- detachment of hexokinase confirmed by immunoblot (anti-HKI, anti-HKII) [3]: detachment of hexokinase from mitochondrial fraction of the various cancer cells was further confirmed
